Assay results published in PubChem BioAssay AID1963984 (Molecular Pharmacology Branch, DTP, NCI, 2024).

System: 233499-124-R-J3-PDC spheroids with HUVEC/MSC, viability
Assay: Anticancer human tumor 233499-124-R-J3-PDC patient-derived colon adenocarcinoma cell line growth inhibition [PI3K]
Conditions: for IC50: curve of first compound; for viability, T/C: stronger effect = lower value
Outline: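 We assembled tumor spheroids that included a stromal compartment of HUVEC and MSCs, then exposed them to targeted agents alone and together with PI3K pathway inhibitors. Concentration series descended by half-log from clinically achievable Cmax levels. Viability served as the endpoint.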

[1] = second compound 0.00316 µM, first compound 0.0316 µM
[2] = second compound 0.00316 µM, first compound 0.1 µM
[3] = second compound 0.00316 µM, first compound 0.316 µM
[4] = second compound 0.00316 µM, first compound 1 µM
[5] = second compound 0.00316 µM, first compound 3.16 µM
[6] = second compound 0.00316 µM, first compound 10 µM
[7] = second compound 0.01 µM, first compound 0.0316 µM
[8] = second compound 0.01 µM, first compound 0.1 µM
[9] = second compound 0.01 µM, first compound 0.316 µM
[10] = second compound 0.01 µM, first compound 1 µM
[11] = second compound 0.01 µM, first compound 3.16 µM
[12] = second compound 0.01 µM, first compound 10 µM
[13] = second compound 0.0316 µM, first compound 0.0316 µM
[14] = second compound 0.0316 µM, first compound 0.1 µM
[15] = second compound 0.0316 µM, first compound 0.316 µM
[16] = second compound 0.0316 µM, first compound 1 µM
[17] = second compound 0.0316 µM, first compound 3.16 µM
[18] = second compound 0.0316 µM, first compound 10 µM
[19] = second compound 0.1 µM, first compound 0.0316 µM
[20] = second compound 0.1 µM, first compound 0.1 µM
[21] = second compound 0.1 µM, first compound 0.316 µM
[22] = second compound 0.1 µM, first compound 1 µM
[23] = second compound 0.1 µM, first compound 3.16 µM
[24] = second compound 0.1 µM, first compound 10 µM
[25] = second compound 0.316 µM, first compound 0.0316 µM
[26] = second compound 0.316 µM, first compound 0.1 µM
[27] = second compound 0.316 µM, first compound 0.316 µM
[28] = second compound 0.316 µM, first compound 1 µM
[29] = second compound 0.316 µM, first compound 3.16 µM
[30] = second compound 0.316 µM, first compound 10 µM
[31] = second compound 1 µM, first compound 0.0316 µM
[32] = second compound 1 µM, first compound 0.1 µM
[33] = second compound 1 µM, first compound 0.316 µM
[34] = second compound 1 µM, first compound 1 µM
[35] = second compound 1 µM, first compound 3.16 µM
[36] = second compound 1 µM, first compound 10 µM
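Also: spheroids exposed to agents for seven days before readout.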
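For viability, T/C in this document: percent viability relative to DMSO vehicle control taken as 100%.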

Structure (SMILES): C#Cc1c(F)ccc2cc(O)cc(-c3ncc4c(N5CC6CCC(C5)N6)nc(OCC56CCCN5CC(F)C6)nc4c3F)c12 (stereo unspecified) + CC(Nc1ccc2c(c1)OCCn1cc(N3C(=O)OCC3C(F)F)nc1-2)C(N)=O
- IC50 (second compound 0.00316 µM): > 10000 nM
- IC50 (second compound 0.01 µM): 2920 nM
- IC50 (second compound 0.0316 µM): > 10000 nM
- IC50 (second compound 0.1 µM): > 10000 nM
- IC50 (second compound 0.316 µM): 5350 nM
- IC50 (second compound 1 µM): 716 nM
- viability, T/C [1]: 83.7%
- viability, T/C [2]: 76%
- viability, T/C [3]: 92%
- viability, T/C [4]: 110%
- viability, T/C [5]: 95.3%
- viability, T/C [6]: 85.5%
- viability, T/C [7]: 99.1%
- viability, T/C [8]: 105%
- viability, T/C [9]: 91.4%
- viability, T/C [10]: 98.7%
- viability, T/C [11]: 46.5%
- viability, T/C [12]: 46%
- viability, T/C [13]: 93.1%
- viability, T/C [14]: 102%
- viability, T/C [15]: 85.4%
- viability, T/C [16]: 85.4%
- viability, T/C [17]: 95.8%
- viability, T/C [18]: 77.4%
- viability, T/C [19]: 99.8%
- viability, T/C [20]: 81%
- viability, T/C [21]: 83.9%
- viability, T/C [22]: 60.2%
- viability, T/C [23]: 70.8%
- viability, T/C [24]: 49.6%
- viability, T/C [25]: 77.2%
- viability, T/C [26]: 78.2%
- viability, T/C [27]: 63.2%
- viability, T/C [28]: 75.1%
- viability, T/C [29]: 59.2%
- viability, T/C [30]: 38%
- viability, T/C [31]: 67.8%
- viability, T/C [32]: 58.6%
- viability, T/C [33]: 58.6%
- viability, T/C [34]: 44%
- viability, T/C [35]: 44.4%
- viability, T/C [36]: 35.2%

Structure (SMILES): CC1(C)CCC(Nc2ncc(C(F)(F)F)c(-c3c[nH]c4c(P(C)(C)=O)c(C#N)ccc34)n2)CN1 (stereo unspecified) + CC(Nc1ccc2c(c1)OCCn1cc(N3C(=O)OCC3C(F)F)nc1-2)C(N)=O
- IC50 (second compound 0.00316 µM): 73.8 nM
- IC50 (second compound 0.01 µM): < 31.6 nM
- IC50 (second compound 0.0316 µM): 94 nM
- IC50 (second compound 0.1 µM): < 31.6 nM
- IC50 (second compound 0.316 µM): 84.3 nM
- IC50 (second compound 1 µM): < 31.6 nM
- viability, T/C [1]: 55.3%
- viability, T/C [2]: 58.7%
- viability, T/C [3]: 24.6%
- viability, T/C [4]: 19.3%
- viability, T/C [5]: 34.4%
- viability, T/C [6]: 1.55%
- viability, T/C [7]: 39.4%
- viability, T/C [8]: 42.9%
- viability, T/C [9]: 34.9%
- viability, T/C [10]: 22.1%
- viability, T/C [11]: 22.7%
- viability, T/C [12]: 1.45%
- viability, T/C [13]: 79.9%
- viability, T/C [14]: 44.4%
- viability, T/C [15]: 31.4%
- viability, T/C [16]: 17%
- viability, T/C [17]: 17.1%
- viability, T/C [18]: 1.3%
- viability, T/C [19]: 36.5%
- viability, T/C [20]: 40.7%
- viability, T/C [21]: 24.5%
- viability, T/C [22]: 13.8%
- viability, T/C [23]: 18.9%
- viability, T/C [24]: 4.74%
- viability, T/C [25]: 67.4%
- viability, T/C [26]: 43%
- viability, T/C [27]: 34.3%
- viability, T/C [28]: 19.4%
- viability, T/C [29]: 20.7%
- viability, T/C [30]: 2.38%
- viability, T/C [31]: 49%
- viability, T/C [32]: 29.3%
- viability, T/C [33]: 28.6%
- viability, T/C [34]: 18.6%
- viability, T/C [35]: 25.9%
- viability, T/C [36]: 0.86%

Structure (SMILES): Cn1cnc2c(F)c(Nc3ccc(Br)cc3Cl)c(C(=O)NOCCO)cc21 + CC(Nc1ncnc2nc[nH]c12)c1cc2cccc(Cl)c2c(=O)n1-c1ccccc1
- IC50 (second compound 0.0316 µM): 600 nM
- IC50 (second compound 0.1 µM): 603 nM
- IC50 (second compound 0.316 µM): 511 nM
- IC50 (second compound 1 µM): 281 nM
- IC50 (second compound 3.16 µM): 275 nM
- IC50 (second compound 10 µM): 455 nM
- viability, T/C (second compound 0.0316 µM, first compound 0.00949 µM): 68.9%
- viability, T/C (second compound 0.0316 µM, first compound 0.03 µM): 69.2%
- viability, T/C (second compound 0.0316 µM, first compound 0.0949 µM): 66%
- viability, T/C (second compound 0.0316 µM, first compound 0.3 µM): 70.9%
- viability, T/C (second compound 0.0316 µM, first compound 0.949 µM): 37.6%
- viability, T/C (second compound 0.0316 µM, first compound 3 µM): 28.6%
- viability, T/C (second compound 0.1 µM, first compound 0.00949 µM): 83.8%
- viability, T/C (second compound 0.1 µM, first compound 0.03 µM): 73.6%
- viability, T/C (second compound 0.1 µM, first compound 0.0949 µM): 64.9%
- viability, T/C (second compound 0.1 µM, first compound 0.3 µM): 67.6%
- viability, T/C (second compound 0.1 µM, first compound 0.949 µM): 40.3%
- viability, T/C (second compound 0.1 µM, first compound 3 µM): 19.5%
- viability, T/C (second compound 0.316 µM, first compound 0.00949 µM): 90%
- viability, T/C (second compound 0.316 µM, first compound 0.03 µM): 76.5%
- viability, T/C (second compound 0.316 µM, first compound 0.0949 µM): 61.1%
- viability, T/C (second compound 0.316 µM, first compound 0.3 µM): 64%
- viability, T/C (second compound 0.316 µM, first compound 0.949 µM): 41%
- viability, T/C (second compound 0.316 µM, first compound 3 µM): 31%
- viability, T/C (second compound 1 µM, first compound 0.00949 µM): 96.6%
- viability, T/C (second compound 1 µM, first compound 0.03 µM): 73.4%
- viability, T/C (second compound 1 µM, first compound 0.0949 µM): 53%
- viability, T/C (second compound 1 µM, first compound 0.3 µM): 51.5%
- viability, T/C (second compound 1 µM, first compound 0.949 µM): 51.7%
- viability, T/C (second compound 1 µM, first compound 3 µM): 22.4%
- viability, T/C (second compound 3.16 µM, first compound 0.00949 µM): 76.8%
- viability, T/C (second compound 3.16 µM, first compound 0.03 µM): 76.2%
- viability, T/C (second compound 3.16 µM, first compound 0.0949 µM): 64.7%
- viability, T/C (second compound 3.16 µM, first compound 0.3 µM): 48.9%
- viability, T/C (second compound 3.16 µM, first compound 0.949 µM): 40%
- viability, T/C (second compound 3.16 µM, first compound 3 µM): 37.1%
- viability, T/C (second compound 10 µM, first compound 0.00949 µM): 74.6%
- viability, T/C (second compound 10 µM, first compound 0.03 µM): 52.1%
- viability, T/C (second compound 10 µM, first compound 0.0949 µM): 72.8%
- viability, T/C (second compound 10 µM, first compound 0.3 µM): 50%
- viability, T/C (second compound 10 µM, first compound 0.949 µM): 43.4%
- viability, T/C (second compound 10 µM, first compound 3 µM): 25.3%
